Experimental data taken from PubChem BioAssay (NCI).
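Each compound was tested at five concentrations against cells in 96-well plates for 48 hours. Here, GI50 denotes the concentration required for 50% inhibition of growth. TGI marks complete inhibition of growth.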

Tests used:
Experiment in all cases: NCI anticancer screen, dose series, 48 h
UACC-257 melanoma = system: UACC-257 melanoma
SR leukemia = system: SR leukemia
BT-549 breast = system: BT-549 breast
MOLT-4 leukemia = system: MOLT-4 leukemia
U251 CNS = system: U251 CNS
SK-MEL-5 melanoma = system: SK-MEL-5 melanoma
NCI-H460 lung = system: NCI-H460 lung
HCT-116 colon = system: HCT-116 colon
HCT-15 colon = system: HCT-15 colon
DU-145 prostate = system: DU-145 prostate
MALME-3M melanoma = system: MALME-3M melanoma
SNB-75 CNS = system: SNB-75 CNS
HCC-2998 colon = system: HCC-2998 colon
NCI-H226 lung = system: NCI-H226 lung
HOP-92 NSCLC = system: HOP-92 NSCLC
COLO 205 colon = system: COLO 205 colon
A549 NSCLC = system: A549 NSCLC
SF-295 CNS = system: SF-295 CNS
OVCAR-8 ovarian = system: OVCAR-8 ovarian
MDA-MB-435 = system: MDA-MB-435
T-47D breast = system: T-47D breast
SN12C renal = system: SN12C renal
HT29 colon = system: HT29 colon
SK-MEL-2 melanoma = system: SK-MEL-2 melanoma
UACC-62 melanoma = system: UACC-62 melanoma
RXF 393 renal = system: RXF 393 renal
A498 renal = system: A498 renal
PC-3 prostate = system: PC-3 prostate
IGROV1 ovarian = system: IGROV1 ovarian
OVCAR-4 ovarian = system: OVCAR-4 ovarian
SF-268 CNS = system: SF-268 CNS
M14 melanoma = system: M14 melanoma
SW-620 colon = system: SW-620 colon
LOX IMVI melanoma = system: LOX IMVI melanoma
HL-60(TB) leukemia = system: HL-60(TB) leukemia
SK-MEL-28 melanoma = system: SK-MEL-28 melanoma
TK-10 renal = system: TK-10 renal
SNB-19 CNS = system: SNB-19 CNS
786-0 renal = system: 786-0 renal
CCRF-CEM leukemia = system: CCRF-CEM leukemia
HS 578T breast = system: HS 578T breast
MCF7 breast = system: MCF7 breast
K-562 leukemia = system: K-562 leukemia
NCI/ADR-RES ovarian = system: NCI/ADR-RES ovarian
OVCAR-5 ovarian = system: OVCAR-5 ovarian
NCI-H23 lung = system: NCI-H23 lung
EKVX NSCLC = system: EKVX NSCLC
SF-539 CNS = system: SF-539 CNS
UO-31 renal = system: UO-31 renal
OVCAR-3 ovarian = system: OVCAR-3 ovarian
KM12 colon = system: KM12 colon
RPMI-8226 leukemia = system: RPMI-8226 leukemia
NCI-H522 lung = system: NCI-H522 lung
HOP-62 NSCLC = system: HOP-62 NSCLC
MDA-MB-231 breast = system: MDA-MB-231 breast
SK-OV-3 ovarian = system: SK-OV-3 ovarian
ACHN renal = system: ACHN renal
CAKI-1 renal = system: CAKI-1 renal

Structure (SMILES): c1ccc(-c2n(Cc3ccc4ccccc4n3)cc[n+]2Cc2ccc3ccccc3n2)cc1
- GI50 (UACC-257 melanoma): 1.01 µM
- TGI (UACC-257 melanoma): 5.21 µM
- GI50 (SR leukemia): 1.29 µM
- TGI (SR leukemia): 13.2 µM
- GI50 (BT-549 breast): 1.65 µM
- TGI (BT-549 breast): 8.48 µM
- GI50 (MOLT-4 leukemia): 4.24 µM
- TGI (MOLT-4 leukemia): 17.2 µM
- GI50 (U251 CNS): 2.66 µM
- TGI (U251 CNS): 12.4 µM
- GI50 (SK-MEL-5 melanoma): 0.542 µM
- TGI (SK-MEL-5 melanoma): 1.85 µM
- GI50 (NCI-H460 lung): 2.49 µM
- TGI (NCI-H460 lung): 11.9 µM
- GI50 (HCT-116 colon): 2.06 µM
- TGI (HCT-116 colon): 11.4 µM
- GI50 (HCT-15 colon): 20.2 µM
- TGI (HCT-15 colon): 85.6 µM
- GI50 (DU-145 prostate): 4.29 µM
- TGI (DU-145 prostate): 18.5 µM
- GI50 (MALME-3M melanoma): 1.57 µM
- TGI (MALME-3M melanoma): 8.02 µM
- GI50 (SNB-75 CNS): 1.33 µM
- TGI (SNB-75 CNS): 5.07 µM
- GI50 (HCC-2998 colon): 1.93 µM
- TGI (HCC-2998 colon): 11.7 µM
- GI50 (NCI-H226 lung): 1.76 µM
- TGI (NCI-H226 lung): 9.72 µM
- GI50 (HOP-92 NSCLC): 0.269 µM
- TGI (HOP-92 NSCLC): 2.47 µM
- GI50 (COLO 205 colon): 1.41 µM
- TGI (COLO 205 colon): 4.05 µM
- GI50 (A549 NSCLC): 13.5 µM
- TGI (A549 NSCLC): 51.1 µM
- GI50 (SF-295 CNS): 3.22 µM
- TGI (SF-295 CNS): 14.5 µM
- GI50 (OVCAR-8 ovarian): 3.25 µM
- TGI (OVCAR-8 ovarian): 13.9 µM
- GI50 (MDA-MB-435): 1.8 µM
- TGI (MDA-MB-435): 10.2 µM
- GI50 (T-47D breast): 0.498 µM
- TGI (T-47D breast): 7.77 µM
- GI50 (SN12C renal): 2.25 µM
- TGI (SN12C renal): 11.2 µM
- GI50 (HT29 colon): 2.39 µM
- TGI (HT29 colon): 11.5 µM
- GI50 (SK-MEL-2 melanoma): 1.96 µM
- TGI (SK-MEL-2 melanoma): 5.96 µM
- GI50 (UACC-62 melanoma): 0.675 µM
- TGI (UACC-62 melanoma): 4.17 µM
- GI50 (RXF 393 renal): 2.8 µM
- TGI (RXF 393 renal): 14 µM
- GI50 (A498 renal): 1.81 µM
- TGI (A498 renal): 10.1 µM
- GI50 (PC-3 prostate): 2.64 µM
- TGI (PC-3 prostate): 12.1 µM
- GI50 (IGROV1 ovarian): 1.87 µM
- TGI (IGROV1 ovarian): 16.4 µM
- GI50 (OVCAR-4 ovarian): 0.709 µM
- TGI (OVCAR-4 ovarian): 7.02 µM
- GI50 (SF-268 CNS): 3.32 µM
- TGI (SF-268 CNS): 14.7 µM
- GI50 (M14 melanoma): 2.35 µM
- TGI (M14 melanoma): 11.5 µM
- GI50 (SW-620 colon): 2.65 µM
- TGI (SW-620 colon): 14.5 µM
- GI50 (LOX IMVI melanoma): 2.35 µM
- TGI (LOX IMVI melanoma): 10.8 µM
- GI50 (HL-60(TB) leukemia): 0.399 µM
- TGI (HL-60(TB) leukemia): 1.7 µM
- GI50 (SK-MEL-28 melanoma): 0.983 µM
- TGI (SK-MEL-28 melanoma): 12.9 µM
- GI50 (TK-10 renal): 5.38 µM
- TGI (TK-10 renal): 18.3 µM
- GI50 (SNB-19 CNS): 2.18 µM
- TGI (SNB-19 CNS): 13.1 µM
- GI50 (786-0 renal): 5.45 µM
- TGI (786-0 renal): 18.5 µM
- GI50 (CCRF-CEM leukemia): 2.9 µM
- TGI (CCRF-CEM leukemia): 14.7 µM
- GI50 (HS 578T breast): 2.76 µM
- TGI (HS 578T breast): 14.3 µM
- GI50 (MCF7 breast): 1.87 µM
- TGI (MCF7 breast): 11.1 µM
- GI50 (K-562 leukemia): 0.754 µM
- TGI (K-562 leukemia): 13.6 µM
- GI50 (NCI/ADR-RES ovarian): > 100 µM
- TGI (NCI/ADR-RES ovarian): > 100 µM
- GI50 (OVCAR-5 ovarian): 5 µM
- TGI (OVCAR-5 ovarian): 21.5 µM
- GI50 (NCI-H23 lung): 1.23 µM
- TGI (NCI-H23 lung): 9.58 µM
- GI50 (EKVX NSCLC): 2.91 µM
- TGI (EKVX NSCLC): 31.4 µM
- GI50 (SF-539 CNS): 2.92 µM
- TGI (SF-539 CNS): 13.2 µM
- GI50 (UO-31 renal): 12.6 µM
- TGI (UO-31 renal): 39.2 µM
- GI50 (OVCAR-3 ovarian): 1.05 µM
- TGI (OVCAR-3 ovarian): 12.1 µM
- GI50 (KM12 colon): 1.76 µM
- TGI (KM12 colon): 10.5 µM
- GI50 (RPMI-8226 leukemia): 0.269 µM
- TGI (RPMI-8226 leukemia): 5.09 µM
- GI50 (NCI-H522 lung): 1.92 µM
- TGI (NCI-H522 lung): 8.72 µM
- GI50 (HOP-62 NSCLC): 5.66 µM
- TGI (HOP-62 NSCLC): 20.8 µM
- GI50 (MDA-MB-231 breast): 1.69 µM
- TGI (MDA-MB-231 breast): 8.58 µM
- GI50 (SK-OV-3 ovarian): 3.39 µM
- TGI (SK-OV-3 ovarian): 11.8 µM

Structure (SMILES): c1ccc(-c2ccc(-c3ccc(C4=NCCN4)cc3)o2)cc1
- TGI (UACC-257 melanoma): 4.89 µM
- TGI (SR leukemia): 7.43 µM
- TGI (ACHN renal): 7.97 µM
- TGI (BT-549 breast): 17.3 µM
- TGI (MOLT-4 leukemia): 4.59 µM
- TGI (U251 CNS): 3.93 µM
- TGI (SK-MEL-5 melanoma): 3.92 µM
- TGI (CAKI-1 renal): 5.36 µM
- TGI (HCT-116 colon): 3.42 µM
- TGI (HCT-15 colon): 4.19 µM
- TGI (DU-145 prostate): 10.3 µM
- TGI (MALME-3M melanoma): 2.17 µM
- TGI (SNB-75 CNS): 5.17 µM
- TGI (HCC-2998 colon): 2.81 µM
- TGI (NCI-H226 lung): 6.15 µM
- TGI (HOP-92 NSCLC): 5.03 µM
- TGI (COLO 205 colon): 3.31 µM
- TGI (A549 NSCLC): 7.8 µM
- TGI (SF-295 CNS): 3.82 µM
- TGI (OVCAR-8 ovarian): 15.2 µM
- TGI (MDA-MB-435): 3.84 µM
- TGI (T-47D breast): 7.06 µM
- TGI (SN12C renal): 11.4 µM
- TGI (HT29 colon): 4.94 µM
- TGI (SK-MEL-2 melanoma): 3.51 µM
- TGI (UACC-62 melanoma): 3.2 µM
- TGI (RXF 393 renal): 6.53 µM
- TGI (A498 renal): 3.65 µM
- TGI (PC-3 prostate): 5.54 µM
- TGI (IGROV1 ovarian): 7.52 µM
- TGI (OVCAR-4 ovarian): 15 µM
- TGI (SF-268 CNS): 8.4 µM
- TGI (M14 melanoma): 3.1 µM
- TGI (SW-620 colon): 4.42 µM
- TGI (LOX IMVI melanoma): 4.01 µM
- TGI (HL-60(TB) leukemia): 3.74 µM
- TGI (SK-MEL-28 melanoma): 3.75 µM
- TGI (TK-10 renal): 11.4 µM
- TGI (SNB-19 CNS): 6.3 µM
- TGI (786-0 renal): 3.1 µM
- TGI (CCRF-CEM leukemia): 4.46 µM
- TGI (HS 578T breast): 2.8 µM
- TGI (MCF7 breast): 3.68 µM
- TGI (K-562 leukemia): 3.44 µM
- TGI (NCI/ADR-RES ovarian): 19.7 µM
- TGI (OVCAR-5 ovarian): 7.9 µM
- TGI (NCI-H23 lung): 17.5 µM
- TGI (EKVX NSCLC): 10.8 µM
- TGI (SF-539 CNS): 4.4 µM
- TGI (UO-31 renal): 3.14 µM
- TGI (OVCAR-3 ovarian): 18 µM
- TGI (KM12 colon): 4.43 µM
- TGI (RPMI-8226 leukemia): 2.88 µM
- TGI (NCI-H522 lung): 4.21 µM
- TGI (HOP-62 NSCLC): 12.3 µM
- TGI (MDA-MB-231 breast): 3.89 µM
- TGI (SK-OV-3 ovarian): 11.5 µM
